Source: patent EP0513240B1, “LIQUID HARD SURFACE DETERGENT COMPOSITIONS CONTAINING ZWITTERIONIC DETERGENT SURFACTANT AND MONOETHANOLAMINE AND/OR BETA-AMINOALKANOL” (THE PROCTER & GAMBLE COMPANY, priority 1990, dated 1991)
Marks after values point to notes of the source that are not given here.

experiment: Solubility of selected diols in 20°C water; format: physicochemical; conditions: determined via laboratory measurements (values marked *)
Protocol: A particularly preferred type of solvent for these hard surface cleaner compositions comprises diols having from 6 to 16 carbon atoms in their molecular structure. Preferred diol solvents have a solubility in water of from about 0.1 to about 20 g/100 g of water at 20°C.

Solubility | Structure (SMILES)
1.0* g/100g H2O | CCCCCCC(O)CO (stereo not shown) [1,2-Octanediol]
12.0* g/100g H2O | OCC(O)c1ccccc1 (stereo not shown) [Phenyl-1,2-ethanediol]
12.0* g/100g H2O | CC(O)(CO)c1ccccc1 (stereo not shown) [2-Phenyl-1,2-propanediol]
20.0* g/100g H2O | OCC1CCC(CO)CC1 (stereo not shown) [1,4-Cyclohexanedimethanol]

experiment: not given; conditions: in 20°C water; values from published literature; cited from earlier work

Structure (SMILES) | Solubility
CC(C)(O)CCC(C)(C)O [2,5-Dimethyl-2,5-hexanediol] | 14.3 g/100g H2O
CC(C)C(O)C(C)(C)CO (stereo not shown) [2,2,4-Trimethyl-1,3-pentanediol] | 1.9 g/100g H2O
CCCC(O)C(CC)CO (stereo not shown) [2-Ethyl-1,3-hexanediol] | 4.2 g/100g H2O
